Laboratory results reported in publication PMC6337619, “Identification of Novel Potential Inhibitors of Pteridine Reductase 1 in Trypanosoma brucei via Computational Structure-Based Approaches and in Vitro Inhibition Assays” (Molecules, 2019).
Where “and” joins values, the source holds several entries; their conditions need not be identical. Identical values can stand only once. Entries after “also recorded” stand apart in the source; their conditions may differ. Like-named read-outs stand apart in the source and are kept apart here.

How the values were obtained:
[1] = In vitro human cytotoxicity assay (resazurin); settings: human, HeLa cells
Experimental: (§2) The compounds assayed for trypanocidal activity were also tested to determine if they caused adverse effects against human cells in vitro. For this assay, HeLa cells were used. The cells were cultured in DMEM supplemented with 10% fetal calf serum and antibiotics (penicillin/streptomycin/amphotericin B) at 37 °C in a 5 % CO2 incubator. Cells were plated at a density of 2 × 10^4 cells/well and after an overnight incubation the compounds were assayed for cytotoxic activity by adding three-fold serial dilutions of each compound (with a 100 µM starting concentration) to the 96-well plates, followed by incubation for 48 h. Cell viability was determined using the resazurin method [74]. Resazurin (0.5 mM in phosphate-buffered saline; 20 µL/well) was added to the cells and, after a 2-h incubation, fluorescence was read in a Spectramax M3 plate reader at excitation and emission wavelengths of 560 nm and 590 nm, respectively. Fluorescence readings were converted to percentage cell viability relative to control wells untreated with compounds. Plots of % cell viability versus log[compound] were used to determine IC50 values by non-linear regression using GraphPad Prism (version 5.02, GraphPad Software Inc., San Diego, USA). Three repeats of the experiment were carried out.

[2] = system: T. b. brucei (strain Lister 427); assay: Trypanosoma in vitro inhibition assay (resazurin); type: cell-based; settings: for anti-trypanosomal activity at single concentration: 20 µM, T. brucei BSF in culture; for IC50: blood stream form, 24 h + 24 h resazurin, mean ± SD of three independent experiments, read-out: IC50 against T. brucei BSF in culture
Experimental: (§1) Compounds RUBi001, RUBi005, and RUBi015 were purchased from MCULE while RUBi002, RUBi004, RUBi007, RUBi008, RUBi010, RUBi011, RUBi012, RUBi014, RUBi016, and RUBi018 were obtained from MolPort (not all the compounds were commercially available). These compounds were assayed for trypanocidal activity by adding 20 μM of each compound to cultures of T. b. brucei (strain Lister 427) in 96-well plates. The parasites were maintained at 37 °C and 5% CO2 in an IMDM medium containing 25 mM HEPES, 10% fetal bovine serum, 1 mM hypoxanthine, 0.05 mM bathocuproine disulfonic acid, 1.5 mM cysteine, 1.25 mM pyruvic acid, 0.09 mM uracil, 0.09 mM cytosine, 0.16 mM thymidine, and 0.014 % 2-mercaptoethanol. Parasites were diluted to 2.4 × 10^4 cells in a volume of 200 µL per well and incubated with the test compounds for 24 h. Parasite percentage viability was determined using the resazurin method. Resazurin (0.5 mM in phosphate-buffered saline; 20 µL/well) was added to each well and incubation continued for a further 24 h, after which fluorescence (Ex560/Em590) was read in a Spectramax M3 microplate reader (Molecular Devices). Trypanocidal activity of the compounds was reported as the percentage of viable parasites in the compound-treated wells when compared to untreated controls (% viability). Pentamidine, an FDA-approved trypanocidal drug, was used as the control drug standard. For compounds that produced <20% viability, IC50 values were subsequently determined. The assays were conducted as described above, except that parasites were incubated with 3-fold serial dilutions of the test compounds and IC50 values derived from % parasite viability vs. log[compound] dose-response plots by non-linear regression analysis using GraphPad Prism (version 5.02, GraphPad Software Inc., San Diego, USA). IC50 evaluations were carried out on three independent occasions and the mean IC50 ± standard deviation is reported in the text. To assess compound interactions, the compounds were assayed for trypanocidal activity when used in combination with WR99210, a known TbDHFR inhibitor [42]. […] For isobologram analysis, the fractional inhibitory concentrations of the RUBi compounds and WR99210 were calculated by dividing the IC50s obtained for the compounds at the various combination ratios with the IC50 obtained for the compounds in the absence of the partner drug, and the FIC values plotted against each other, i.e., RUBi compound FIC versus WR99210 FIC.

[3] = system: T. b. brucei (strain Lister 427); assay: Isobologram combination assay with WR99210; type: cell-based; settings: ratios 75:25, 50:50, 25:75 with TbDHFR inhibitor WR99210
Experimental: as §1

HeLa cells = assay: In vitro human cytotoxicity assay (resazurin); settings: at 100 µM
Experimental: as §2

in vitro = settings: human, HeLa cells
Experimental: as §2

T. brucei in culture = system: T. brucei in culture; set-up: method as in PMID 16729575, PMID 16569852; settings: cited from earlier work

SMILES	anti-trypanosomal activity at single concentration [2]	IC50 ([2]; Trypanosoma brucei, 48 h) [µM]	effect in combination with WR99210 (isobologram, FIC) [3]	further results
CC[C@H]1CN2CCc3cc(OC)c(OC)cc3[C@@H]2C[C@@H]1C[C@H]1NCCc2cc(OC)c(OC)cc21 [Emetine, reference compound]				IC50 at 48 h [1]: 0.013 µM
O=c1cc(-c2cccc(O)c2O)oc2ccc(O)cc12 [RUBi001, 2-(2,3-dihydroxyphenyl)-6-hydroxychromen-4-one]	did not show anti-trypanosomal activity			
COc1ccc2oc3cc(OCC(=O)Nc4c(C)cccc4C)cc(O)c3c(=O)c2c1 [RUBi002, N-(2,6-dimethylphenyl)-2-(1-hydroxy-7-methoxy-9-oxo-xanthen-3-yl)oxy-acetamide]	did not show anti-trypanosomal activity			
CC1=NN(c2ccc(C)cc2C)C(=O)/C1=C/NNC(=O)c1cccc([N+](=O)[O-])c1 [RUBi004, N'-{[1-(2,4-dimethylphenyl)-3-methyl-5-oxo-1,5-dihydro-4H-pyrazol-4-ylidene]methyl}-3-nitrobenzohydrazide]		9.6 ± 3.2	reduced inhibition; also recorded: moderate to strong antagonism; also recorded: antagonistic effect	IC50 at 48 h [1]: 23.6 ± 5.8 µM
Cc1ccccc1OCC(=O)NNC(=S)NC(=O)c1ccccc1[N+](=O)[O-] [RUBi005, 2-nitro-N-({2-[(2-methylphenoxy)acetyl]hydrazino}carbothioyl)benzamide]	did not show anti-trypanosomal activity			
COc1ccc(NC(=O)CSc2nc3[nH]ncc3c(=O)n2-c2ccccc2)cc1 [RUBi007, N-(4-methoxyphenyl)-2-[(4-oxo-5-phenyl-4,5-dihydro-1H-pyrazolo[3,4-d]pyrimidin-6-yl)sulfanyl]acetamide]		34.9 ± 17.1	reduced inhibition; also recorded: moderate to strong antagonism; also recorded: antagonistic effects	human cell cytotoxicity (HeLa cells): no significant human (human cervix adenocarcinoma (HeLa)) cell cytotoxicity; effect in combination with WR99210 (isobologram, FIC) ([3]; listed as RUB007): antagonistic effect; viability at 48 h, 100 µM (in vitro): > 90%
COc1cc(CNc2nc[nH]n2)ccc1OCc1cccc(C)c1 [RUBi008, [3-Methoxy-4-(3-methyl-benzyloxy)-benzyl]-(1H-[1,2,4]triazol-3-yl)-amine]	did not show anti-trypanosomal activity			
Nc1ccc2nc(SCC(=O)N3CCCC3)sc2c1 [RUBi010, 2-{[2-oxo-2-(1-pyrrolidinyl)ethyl]sulfanyl}-1,3-benzothiazol-6-ylamine]	did not show anti-trypanosomal activity			
Cc1ccc(NC(=O)Cn2c(-c3nonc3N)nc3ccccc32)cc1F [RUBi011, 2-[2-(4-amino-1,2,5-oxadiazol-3-yl)-1H-benzimidazol-1-yl]-N-(3-fluoro-4-methylphenyl)acetamide]	did not show anti-trypanosomal activity			
NS(=O)(=O)c1ccc(NC(=O)NC2CCCCC2)cc1 [RUBi012, 1-cyclohexyl-3-(4-sulfamoylphenyl)urea]	did not show anti-trypanosomal activity			
O=C1CC(c2ccc(O)c(O)c2)Oc2cc(O)cc(O)c21 (stereo not drawn) [RUBi014, 2-(3,4-dihydroxyphenyl)-5,7-dihydroxy-3,4-dihydro-2H-1-benzopyran-4-one]		14.6 ± 9.9	reduced inhibition; also recorded: moderate to strong antagonism; also recorded: antagonistic effect	anti-protozoal activity (T. brucei in culture): selectively anti-protozoal with activity against T. brucei in culture; IC50 at 48 h [1]: 32.9 ± 2.2 µM
Cn1c(=O)c2ncn(CC(=O)Nc3ccc(O)cc3)c2n(C)c1=O [RUBi016, 2-(1,3-dimethyl-2,6-dioxo-1,2,3,6-tetrahydro-9H-purin-9-yl)-N-(4-hydroxyphenyl)acetamide]		25.4 ± 4.7	additive effect	human cell cytotoxicity (HeLa cells): no significant human (human cervix adenocarcinoma (HeLa)) cell cytotoxicity; viability at 48 h, 100 µM (in vitro): > 90%
O=C(CC1S/C(=N\N=C2CCCC2)N=C1O)Nc1ccccc1 (stereo not drawn) [RUBi018, 2-[2-(cyclopentylidenehydrazono)-4-hydroxy-2,5-dihydro-1,3-thiazol-5-yl]-N-phenylacetamide]		12.7 ± 3.7	reduced inhibition; also recorded: moderate to strong antagonism; also recorded: antagonistic effect	human cell cytotoxicity (HeLa cells): no significant human (human cervix adenocarcinoma (HeLa)) cell cytotoxicity; viability at 48 h, 100 µM (in vitro): > 90%
CC1(C)N=C(N)N=C(N)N1OCCCOc1cc(Cl)c(Cl)cc1Cl [WR99210, reference compound]				IC50 [2]: 0.5 µM and 0.55 µM
N=C(N)c1ccc(OCCCCCOc2ccc(C(=N)N)cc2)cc1 [pentamidine, reference compound]		0.014		
